Experimental data published in ChEMBL document CHEMBL3259747, “Small chemicals with inhibitory effects on PtdIns(3,4,5)P3 binding of Btk PH domain” (Bioorg Med Chem Lett, 2014).
pIC50: −log10 of the molar value.

Experiments:
[1] = target: T1, Tyrosine-protein kinase BTK (Homo sapiens, UniProt Q06187); test: Inhibition of PtdIns(3,4,5)P3 binding to Btk PH domain (unknown origin) expressed in Escherichia coli BL21(DE3) RIL cells at 100 uM by surface plasmon resonance assay relative to untreated control
T1 sequence (Q06187 whole entry, the tested form may be a part): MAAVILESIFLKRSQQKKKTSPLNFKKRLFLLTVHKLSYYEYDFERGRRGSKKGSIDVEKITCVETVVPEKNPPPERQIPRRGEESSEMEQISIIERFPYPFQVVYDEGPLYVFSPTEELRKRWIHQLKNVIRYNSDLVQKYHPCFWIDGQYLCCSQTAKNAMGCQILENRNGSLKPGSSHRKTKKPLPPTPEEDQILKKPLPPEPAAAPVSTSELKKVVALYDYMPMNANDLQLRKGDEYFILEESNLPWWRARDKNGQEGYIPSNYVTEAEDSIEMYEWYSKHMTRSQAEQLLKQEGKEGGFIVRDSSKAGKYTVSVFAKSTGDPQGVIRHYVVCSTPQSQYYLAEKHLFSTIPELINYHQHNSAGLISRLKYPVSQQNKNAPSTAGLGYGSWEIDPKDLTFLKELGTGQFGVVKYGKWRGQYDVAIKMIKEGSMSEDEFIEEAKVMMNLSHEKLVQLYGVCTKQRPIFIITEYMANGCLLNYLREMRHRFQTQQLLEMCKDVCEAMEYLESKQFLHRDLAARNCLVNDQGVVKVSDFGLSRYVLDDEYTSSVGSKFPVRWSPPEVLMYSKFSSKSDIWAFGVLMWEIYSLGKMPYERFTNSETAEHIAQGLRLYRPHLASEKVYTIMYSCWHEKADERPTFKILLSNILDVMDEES

Epsin-1 = target: T2, Epsin-1 (Homo sapiens, UniProt Q9Y6I3); test: Inhibition of PtdIns(4,5)P2 binding to Epsin1 ENTH domain (unknown origin)
T2 sequence (Q9Y6I3 whole entry): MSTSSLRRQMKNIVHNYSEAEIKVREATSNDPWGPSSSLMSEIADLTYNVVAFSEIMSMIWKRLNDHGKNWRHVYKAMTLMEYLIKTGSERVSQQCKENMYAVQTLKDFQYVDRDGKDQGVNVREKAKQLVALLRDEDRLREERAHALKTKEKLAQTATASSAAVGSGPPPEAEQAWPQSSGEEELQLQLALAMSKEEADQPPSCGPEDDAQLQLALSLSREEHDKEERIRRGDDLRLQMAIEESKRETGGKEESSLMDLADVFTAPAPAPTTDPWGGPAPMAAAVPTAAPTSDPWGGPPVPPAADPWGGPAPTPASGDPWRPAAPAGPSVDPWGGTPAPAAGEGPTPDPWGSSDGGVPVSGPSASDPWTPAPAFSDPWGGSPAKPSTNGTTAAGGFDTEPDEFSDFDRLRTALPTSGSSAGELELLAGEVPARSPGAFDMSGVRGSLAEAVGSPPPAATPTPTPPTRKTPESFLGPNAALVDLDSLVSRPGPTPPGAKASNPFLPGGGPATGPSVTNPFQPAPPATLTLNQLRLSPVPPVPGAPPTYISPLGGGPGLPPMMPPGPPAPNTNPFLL

[2] = target: T1, Tyrosine-protein kinase BTK; test: Inhibition of PtdIns(3,4,5)P3 binding to Btk PH domain (unknown origin) expressed in Escherichia coli BL21(DE3) RIL cells by surface plasmon resonance assay relative to untreated control

Compound	inhibition [1] [%]	pIC50 (Epsin-1)	pIC50 [2]
CCOP(=O)(O)c1cc(C(=O)O)[nH]n1	37		
O=C(O)c1cc(P(=O)(O)O)n[nH]1	95	4.34	4.77
CC1(C(=O)O)CC([PH](=O)O)=NN1 (stereo not drawn)	71		
COP(=O)(O)c1cc(C(=O)O)[nH]n1	48		
CCOP(=O)(O)c1n[nH]c(C(=O)O)c1C(=O)O	34		

Further lines, with some results ahead:

inhibition [1] [%]	Compound	pIC50 (Epsin-1)	pIC50 [2]
64	CC1(C(=O)O)NN=C(P(=O)(O)O)C1C(=O)O (stereo not drawn)		
11	O=C1[C@@H]2C[C@@H]3O[C@]2(C(O)C3OP(=O)(O)O)[C@@H](P(=O)(O)O)N1Cc1ccccc1 (stereo partly drawn)		
41	CCOP(=O)(O)C1=NNC(C)(C(=O)O)C1 (stereo not drawn)		
38	O=C1[C@@H]2C[C@H]3CC[C@@]2(O3)[C@@H](P(=O)(O)O)N1Cc1ccccc1		
52	COP(=O)(O)C1=NNC(C)(C(=O)O)C1 (stereo not drawn)		
13	O=C1[C@@H]2C[C@@H]3O[C@]2(C(O)C3O)[C@@H](P(=O)(O)O)N1Cc1ccccc1 (stereo partly drawn)		
